These results are taken from article PMC4837090 (Nature chemical biology, 2016).

One test has as its target T1, hAIG1 (Homo sapiens, UniProt Q9NVV5).
T1 sequence (Q9NVV5 1-238): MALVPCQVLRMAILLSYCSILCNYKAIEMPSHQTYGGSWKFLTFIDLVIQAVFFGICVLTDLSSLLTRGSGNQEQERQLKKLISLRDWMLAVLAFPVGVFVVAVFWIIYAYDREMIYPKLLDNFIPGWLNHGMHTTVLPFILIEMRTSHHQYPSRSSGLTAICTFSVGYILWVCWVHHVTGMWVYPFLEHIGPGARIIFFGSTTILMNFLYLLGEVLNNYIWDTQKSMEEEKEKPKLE
It counts as binding.

Another test concerns LNCaP cells. Nature of the test: in situ 13C,2H-PAHSA hydrolysis. Particulars: 5 μM, 4 h, then 2 μM 13C,2H-PAHSA 2 h. It counts as cell-based, human.

On to `CCCCCCCCCCC[C@@H](C[C@@H]1OC(=O)[C@H]1CCCCCC)OC(=O)[C@H](CC(C)C)NC=O` [THL, tetrahydrolipstatin], for which the “inhibition of FP reactivity of AIG1” value against hAIG1 is reported as “did not inhibit”. Further, in the test on LNCaP cells, the “reduction in 13C16-PA and 2H19-HSA products (13C,2H-PAHSA hydrolysis) vs DMSO” value is given as “negligible alterations”.
